In assay [1] the target is human D2L receptor (Homo sapiens, UniProt P14416). Kind of assay: Dopamine D2L receptor binding assay ([3H]-spiperone). The note with it: 10 nM test drug; [3H]-spiperone 0.5 nM; human D2L receptor-expressing CHO cell membrane; read-out: BINDING INHIBITION RATE (%) D2L 10 nM. As to the method: (1) Dopamine D2L Receptor Binding Assay
D2L receptor binding assay was performed in reference to a method described by Hirose et al. (Japan. J. Pharmacol., 53, 321-329, 1990). After a reaction in a total volume of 200 μL of 50 mM Tris-HCl (pH=7.6) buffer solution containing 50 μL of [^3H]-spiperone (final concentration 0.5 nM), 1 μL of test drug in DMSO, and 149 μL of human D2L receptor-expressing CHO cell membrane sample, human D2L receptor binding activity of [^3H]-spiperone was measured. The reaction solution let stand for 60 minutes at room temperature, and then it was quickly added on a glass fiber filter plate (Multiscreen FB, Millipore inc.) coated with 0.3% polyethyleneimine (PEI) and filtered under reduced pressure. The glass fiber filter was washed with 200 μL of ice-cooled 50 mM Tris-HCl (pH=7.6) twice, repeatedly filtered under reduced pressure, and then transferred to a vial containing 4 mL of Ecoscint A (National Diagnostics inc.). The residual radioactivity on the glass fiber filter was measured by a liquid scintillation counter. Nonspecific binding was measured in the presence of 10 μM of spiperone, and [^3H]-spiperone binding inhibition rate in the presence of 10 nM of test drug was determined. The larger binding inhibition rate (%) means that test drug has the higher binding affinity for human D2L receptor.

The target of assay [2] is T1, human 5-HT2A receptor (Homo sapiens, UniProt P28223).
T1 construct: expressed in transfected cells; host or cells: CHO cells (membrane preparation)
T1 sequence (P28223 whole entry): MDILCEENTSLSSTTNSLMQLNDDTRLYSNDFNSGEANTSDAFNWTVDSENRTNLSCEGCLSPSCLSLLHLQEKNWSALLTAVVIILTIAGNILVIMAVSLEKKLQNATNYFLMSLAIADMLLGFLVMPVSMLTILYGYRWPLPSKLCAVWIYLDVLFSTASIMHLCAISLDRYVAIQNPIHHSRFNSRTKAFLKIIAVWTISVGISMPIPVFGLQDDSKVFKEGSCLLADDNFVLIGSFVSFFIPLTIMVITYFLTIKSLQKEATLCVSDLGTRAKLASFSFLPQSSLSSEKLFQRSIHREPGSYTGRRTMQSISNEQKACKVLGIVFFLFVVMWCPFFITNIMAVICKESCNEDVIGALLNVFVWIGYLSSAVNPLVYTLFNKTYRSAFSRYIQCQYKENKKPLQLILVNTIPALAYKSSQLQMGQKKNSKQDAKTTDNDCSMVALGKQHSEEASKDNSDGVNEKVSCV
Kind of assay: Serotonin 5-HT2A receptor binding assay ([3H]-ketanserin). The following applies: [3H]-ketanserin 1 nM, human 5-HT2A receptor-expressing CHO cell membrane; for inhibition at 0.01 µM: 10 nM test drug, read-out: BINDING INHIBITION RATE (%) 5HT2A 10 nM; for inhibition at 0.001 µM: 1 nM test drug, read-out: BINDING INHIBITION RATE (%) 5HT2A 1 nM. As to the method: (2) Serotonin 5-HT2A Receptor Binding Assay
5-HT2A receptor binding assay was performed in reference to a method described by Hirose et al. (Japan. J. Pharmacol., 53, 321-329, 1990). After a reaction in a total volume of 200 μL of 50 mM Tris-HCl (pH=7.6) buffer solution containing 50 μL of [^3H]-ketanserin (final concentration 1 nM), 1 μL of test drug in DMSO, and 149 μL of human 5-HT2A receptor-expressing CHO cell membrane sample, human 5-HT2A receptor binding activity of [^3H]-ketanserin was measured. The reaction solution let stand for 15 minutes at 37° C., and then it was quickly added on a glass fiber filter plate (Multiscreen FB, Millipore inc.) coated with 0.05% Brij 35 and filtered under reduced pressure. The glass fiber filter was washed with 200 μL of ice-cooled 50 mM Tris-HCl (pH=7.6) twice, repeatedly filtered under reduced pressure, and then transferred to a vial containing 4 mL of Ecoscint A (National Diagnostics inc.). The residual radioactivity on the glass fiber filter was measured by a liquid scintillation counter. Nonspecific binding was measured in the presence of 10 μM of MDL-100907, and [^3H]-ketanserin binding inhibition rate in the presence of 1 nM or 10 nM of test drug was determined.

For assay [3], the target named is T2, human 5-HT6 receptor (Homo sapiens, UniProt P50406).
T2 construct: expressed in transfected cells; host or cells: CHO cells (membrane preparation)
T2 sequence (P50406 whole entry): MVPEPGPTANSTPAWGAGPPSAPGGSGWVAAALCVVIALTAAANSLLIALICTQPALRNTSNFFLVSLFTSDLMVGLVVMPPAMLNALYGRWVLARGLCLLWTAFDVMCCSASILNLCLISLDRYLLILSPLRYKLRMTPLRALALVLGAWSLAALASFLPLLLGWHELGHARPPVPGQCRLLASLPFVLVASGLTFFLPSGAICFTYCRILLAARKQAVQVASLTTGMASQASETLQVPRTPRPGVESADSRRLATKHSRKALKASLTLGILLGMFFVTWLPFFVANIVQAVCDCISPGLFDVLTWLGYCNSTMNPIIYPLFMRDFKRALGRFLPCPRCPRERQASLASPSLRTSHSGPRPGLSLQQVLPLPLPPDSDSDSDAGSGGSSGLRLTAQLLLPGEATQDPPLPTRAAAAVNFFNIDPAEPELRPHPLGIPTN
As to the kind of experiment: Serotonin 5-HT6 receptor binding assay ([3H]-clozapine). The following applies: 100 nM test drug; [3H]-clozapine 2 nM; human 5-HT6 receptor-expressing CHO cell membrane; read-out: BINDING INHIBITION RATE (%) 5HT6 100 nM. As to the method: (3) Serotonin 5-HT6 Receptor Binding Assay
After a reaction in a total volume of 200 μL of 50 mM Tris-HCl (pH=7.6), 4 mM CaCl2, and 0.5 mM EDTA buffer solution containing 50 μL of [^3H]-clozapine (final concentration 2 nM), 1 μL of test drug in DMSO, and 149 μL of human 5-HT6 receptor-expressing CHO cell membrane sample, human 5-HT6 receptor binding activity of [^3H]-clozapine was measured. The reaction solution let stand for 40 minutes at room temperature, and then it was quickly added on a glass fiber filter plate (Multiscreen FB, Millipore inc.) coated with 0.3% polyethyleneimine (PEI) and filtered under reduced pressure. The glass fiber filter was washed with 200 μL of ice-cooled 50 mM Tris-HCl (pH=7.6) twice, repeatedly filtered under reduced pressure, and then transferred to a vial containing 4 mL of Ecoscint A (National Diagnostics inc.). The residual radioactivity on the glass fiber filter was measured by a liquid scintillation counter. Nonspecific binding was measured in the presence of 10 μM of SB-258585, and [^3H]-clozapine binding inhibition rate in the presence of 100 nM of test drug was determined.

Assay [4] concerns the target T3, human α1D receptor (Homo sapiens, UniProt P25100).
T3 construct: expressed in transfected cells; host or cells: CHO cells (membrane preparation)
T3 sequence (P25100 1-572): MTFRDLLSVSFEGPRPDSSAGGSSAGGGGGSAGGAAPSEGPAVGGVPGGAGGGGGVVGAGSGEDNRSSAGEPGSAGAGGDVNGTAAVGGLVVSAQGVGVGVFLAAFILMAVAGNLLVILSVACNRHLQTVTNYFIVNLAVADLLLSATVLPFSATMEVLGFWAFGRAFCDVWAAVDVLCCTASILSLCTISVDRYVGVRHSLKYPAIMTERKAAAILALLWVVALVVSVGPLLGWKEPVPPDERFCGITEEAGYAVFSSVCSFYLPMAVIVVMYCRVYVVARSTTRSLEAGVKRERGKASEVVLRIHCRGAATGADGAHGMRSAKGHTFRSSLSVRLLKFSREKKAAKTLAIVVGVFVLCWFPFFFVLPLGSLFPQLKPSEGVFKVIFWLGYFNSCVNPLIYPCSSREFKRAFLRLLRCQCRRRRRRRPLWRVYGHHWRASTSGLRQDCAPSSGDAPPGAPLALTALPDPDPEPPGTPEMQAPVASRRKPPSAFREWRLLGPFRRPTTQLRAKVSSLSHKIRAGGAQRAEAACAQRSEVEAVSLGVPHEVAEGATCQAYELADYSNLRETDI
As to the kind of experiment: Adrenaline α1D receptor binding assay ([3H]-prazosin). The following applies: 100 nM test drug; [3H]-prazosin 0.6 nM; human α1D receptor-expressing CHO cell membrane; read-out: BINDING INHIBITION RATE (%) α1D 100 nM. The protocol:
(4) Adrenaline α1D Receptor Binding Assay
After a reaction in a total volume of 200 μL of 50 mM Tris-HCl (pH=7.6) buffer solution containing 50 μL of [^3H]-prazosin (final concentration 0.6 nM), 1 μL of test drug in DMSO, and 149 μL of human α1D receptor-expressing CHO cell membrane sample, human α1D receptor binding activity of [^3H]-prazosin was measured. The reaction solution let stand for 30 minutes at room temperature, and then it was quickly added on a glass fiber filter plate (Multiscreen FB, Millipore inc.) coated with 0.3% polyethyleneimine (PEI) and filtered under reduced pressure. The glass fiber filter was washed with 200 μL of ice-cooled 50 mM Tris-HCl (pH=7.6) twice, repeatedly filtered under reduced pressure, and then transferred to a vial containing 4 mL of Ecoscint A (National Diagnostics inc.). The residual radioactivity on the glass fiber filter was measured by a liquid scintillation counter. Nonspecific binding was measured in the presence of 1 μM of prazosin, and [^3H]-prazosin binding inhibition rate in the presence of 100 nM of test drug was determined.

The values below come from patent US8541585B2, “N-acyl cyclic amine derivative or pharmaceutically acceptable salt thereof” (Dainippon Sumitomo Pharma Co., Ltd., priority 2010, dated 2013).

human D2L receptor, sequence (P14416 whole entry): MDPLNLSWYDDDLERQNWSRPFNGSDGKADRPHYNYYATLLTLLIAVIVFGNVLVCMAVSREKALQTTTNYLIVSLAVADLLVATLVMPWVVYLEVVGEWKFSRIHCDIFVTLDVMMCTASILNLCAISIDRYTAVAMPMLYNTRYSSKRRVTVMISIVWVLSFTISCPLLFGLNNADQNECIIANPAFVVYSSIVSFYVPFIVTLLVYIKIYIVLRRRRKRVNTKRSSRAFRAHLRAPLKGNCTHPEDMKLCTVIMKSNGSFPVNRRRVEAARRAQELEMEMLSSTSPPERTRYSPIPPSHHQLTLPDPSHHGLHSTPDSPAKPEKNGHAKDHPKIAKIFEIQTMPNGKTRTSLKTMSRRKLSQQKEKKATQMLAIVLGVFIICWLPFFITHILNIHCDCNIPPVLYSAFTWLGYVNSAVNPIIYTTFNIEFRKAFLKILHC

Consider `COc1ccc2[nH]c(C(=O)N3CCC[C@H]3CCN3CCC(c4cn(-c5ccc(F)cc5)c5ccc(Cl)cc45)CC3)cc2c1` [Example 60], for which the inhibition at 0.01 µM was determined as 76% in assay [1] and 78% in assay [2]. Further, the inhibition at 0.1 µM in assay [3] worked out at 97%; in assay [4], 76%.
Take `COc1cc2cc(C(=O)N3CCC[C@H]3CCN3CCC(C(=O)c4ccc(F)cc4)CC3)[nH]c2cn1` [Example 50]: in assay [1], the inhibition at 0.01 µM worked out at 71%. The inhibition at 0.001 µM in assay [2] is 66%. In addition, the values for the inhibition at 0.1 µM in assay [3] and in assay [4] were 88% and 43%, respectively.
`O=C(c1ccc(F)cc1)C1CCN(C[C@H]2CCCN(C(=O)c3cc4ccc(Cl)cc4[nH]3)C2)CC1` [Example 45]: the inhibition at 0.01 µM in assay [1] worked out at 82%. In addition, in assay [2], the inhibition at 0.001 µM was determined as 84%. For the same compound, the inhibition at 0.1 µM turned out to be 97% in assay [3] and 46% in assay [4].
For the compound `COc1ccc2cc(C(=O)N3CC[C@H]3CCN3CCC(c4c[nH]c5ccccc45)CC3)[nH]c2c1` [Example 32], the results for the inhibition at 0.01 µM in assay [1] and in assay [2] were 36% and 95%, respectively. For the same compound, the inhibition at 0.1 µM turned out to be 97% in assay [3] and 68% in assay [4].
With `Cc1cccc2cc(C(=O)N3CCC[C@H]3CCN3CCC(C(=O)c4ccc(F)cc4)CC3)[nH]c12` [Example 61], the inhibition at 0.01 µM in assay [1] was found to be 69%. For the same compound, the inhibition at 0.001 µM in assay [2] was 46%. Moreover, the inhibition at 0.1 µM in assay [3] was 82%; in assay [4] it was 29%.
For the compound `COc1ccc2cc(C(=O)N3C[C@H](O)C[C@H]3CCN3CCC(c4c[nH]c5ccccc45)CC3)[nH]c2c1` [Example 35], the figures for the inhibition at 0.01 µM in assay [1] and in assay [2] were 37% and 89%, respectively. Besides, the inhibition at 0.1 µM was 79% in assay [3] and 81% in assay [4].
Take `O=C(/C=C/c1ccc2c(c1)OCO2)N1CCC[C@@H](CCN2CCN(c3nsc4ccccc34)CC2)C1` [Example 4, (S,E)-3-(Benzo[d][1,3]-5-dioxolyl)-1-(3-(2-(4-(benzo[d]isothiazo-3-yl)piperazin-1-yl)ethyl)piperidin-1-yl)-2-propen-1-one]: the inhibition at 0.01 µM in assay [1] was 73%; in assay [2], 96%. In addition, the inhibition at 0.1 µM in assay [3] amounted to 65%; in assay [4], 30%.
For the compound `Cc1ccc2cc(C(=O)N3CCC[C@H]3CCN3CCN(c4nccc5ccccc45)CC3)[nH]c2c1` [Example 11], in assay [1], the inhibition at 0.01 µM stood at 69%. Further, the inhibition at 0.001 µM in assay [2] is 64%. The inhibition at 0.1 µM in assay [3] is 86%; in assay [4], 5%.
In the same order, the values of `Cc1ccc2cc(C(=O)N3CCC[C@H]3CCN3CCC(C(=O)c4ccc(F)cc4)CC3)[nH]c2c1` [Example 1, (S)-(2-(2-(4-(4-Fluorobenzoyl)piperidin-1-yl)ethyl)pyrrolidin-1-yl)(6-methyl-1H-indol-2-yl)methanone] are 91%, 73%, 96% and 68%.
`O=C(c1nc2cc(Cl)ccc2[nH]1)N1CCCC[C@H]1CCN1CCC(c2c[nH]c3ccccc23)CC1` [Example 58]: the inhibition at 0.01 µM in assay [1] was 57%; in assay [2] it was 91%. In addition, the inhibition at 0.001 µM in assay [2] turned out to be 74%. The inhibition at 0.1 µM was determined as 98% in assay [3] and 97% in assay [4].
As to `O=C(c1ccc(F)cc1)C1CCN(CC[C@@H]2CCCN2C(=O)c2[nH]c3ccccc3c2C(=O)N2CCCCC2)CC1` [Example 54], in assay [1], the inhibition at 0.01 µM stood at 71%. Also, the inhibition at 0.001 µM in assay [2] amounted to 7%. Besides, the inhibition at 0.1 µM was 81% in assay [3] and 63% in assay [4].
`COc1ccc2cc(C(=O)N3CCCC[C@H]3CCN3CCC(c4c[nH]c5ccccc45)CC3)[nH]c2c1` [Example 31]: the inhibition at 0.01 µM came out at 78% in assay [1] and 96% in assay [2]. Further, the inhibition at 0.1 µM turned out to be 88% in assay [3] and 54% in assay [4].
Take `Cc1ccc2cc(C(=O)N3CCC[C@H]3CCN3CCN(c4n[nH]c5ccccc45)CC3)[nH]c2c1` [Example 2, (S)-(2-(2-(4-(1H-Indazol-3-yl)piperazin-1-yl)ethyl)pyrrolidin-1-yl)(6-methyl-1H-indol-2-yl)methanone]: the inhibition at 0.01 µM in assay [1] is 73%. Moreover, the inhibition at 0.001 µM in assay [2] came to 65%. The figures for the inhibition at 0.1 µM in assay [3] and in assay [4] were 95% and 63%, respectively.
In the same order, the values of `O=C(c1ccc(F)cc1)C1CCN(CC[C@@H]2CCCN2C(=O)c2[nH]c3cc(OC(F)(F)F)ccc3c2F)CC1` [Example 164, (S)-(3-Fluoro-6-(trifluoromethoxy)-1H-indol-2-yl)(2-(2-(4-(4-fluorobenzoyl)piperidin-1-yl)ethyl)pyrrolidin-1-yl)methanone] are 79%, 56%, 99% and 43%.

Broadly, the inhibition is the change of the read-out against control, counted positive when it falls.
